Read-outs that look alike come from different tables or passages of the source. Non-standard residues stand in square brackets, D forms with d. Primed or numbered codes have the meaning given here. No end group written: not given here. FITC′ = fluorescein isothiocyanate label on the N-terminus; pS = N[C@@H](COP(=O)(O)O)C(=O)O
Tests used:
GK domain of PSD95 [1] = details: fluorescence polarization assay, cited from earlier work
Description: page 6: 2. Supplementary Tables Supplementary Table 1.

GK domain of PSD95 [2] = details: isothermal titration calorimetry assay; ref Zhu et al., 2017; cited from earlier work
[3] = target: T1, His6-tagged PSD95 GK domain (a.a. 531-713) (UniProt P31016 531-713); experiment: fluorescence polarisation; direct titration: 10 nM FITC-SAPAP constant, His-GK 0 to 20 uM; 50 mM Tris, 100 mM NaCl, pH 7.5; 384-well plates, 1-h incubation; details: both partners purified
T1 construct: postsynaptic density protein 95 (PSD95, encoded by DLG4), guanylate kinase (GK) domain, a.a; 531-713; In the MST assay the protein was labelled on its His tag with the RED-Tris-NTA kit; The PDB entries are cited crystal structures of PSD95 GK with peptides; also called His-GK; His-PSD95 GK; source: E. coli BL21 (DE3), purified (Ni-NTA, size-exclusion chromatography); not shown: His6, N-terminal, …
T1 sequence (P31016 531-713): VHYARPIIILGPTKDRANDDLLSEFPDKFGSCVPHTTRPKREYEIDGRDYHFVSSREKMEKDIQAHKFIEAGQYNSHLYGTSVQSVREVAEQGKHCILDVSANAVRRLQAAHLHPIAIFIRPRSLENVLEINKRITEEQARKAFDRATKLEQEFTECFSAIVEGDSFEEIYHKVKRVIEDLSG

LSRVK[pS]LKKSLRQSF [p-LGL2]
Kd (GK domain of PSD95 [1]; ref Zhu et al., 2014): 10200 ± 1300 nM

RIRREEYRRAINGQSMKL
Kd (GK domain of PSD95 [2]): 1860 ± 310 nM

AELEGGPYSPLGKDYRKAEGEREEEG [MAP1A]
Kd (GK domain of PSD95 [1]; ref Xia et al., 2017): 12100 ± 200 nM

GRRH[pS]MENLELMKLTPEK [p-LGN]
Kd (GK domain of PSD95 [1]; ref Zhu et al., 2011): 530 ± 90 nM

AARRE[pS]YLKATQPSL [p-SAPAP]
Kd (GK domain of PSD95 [2]): 80 ± 10 nM

RIRREEYRRAINGQSFDLS
Kd (GK domain of PSD95 [2]): 660 ± 130 nM

B1: FITC-labeled SAPAP peptide FITC-AARRE(pS)YLKATQ (peptide)
peptide: {FITC′}-AARRE[pS]YLKATQ
notes: phosphorylated SAPAP peptide; SAPAP1 (DLGAP1, GKAP) is the member it names elsewhere; also called FITC-SAPAP; FITC-SAPAP probe; source: synthetic peptide, bought: China Peptides
Kd [3]: 4280 nM
